Results published in article PMC9785777, “Antidiabetic Potential of Novel 1,3,5-Trisubstituted-2-Thioxoimidazloidin-4-One Analogues: Insights into α-Glucosidase, α-Amylase, and Antioxidant Activities” (Pharmaceuticals, 2022).
Values joined by “and” are separate entries in the source; they are usually repeats but may differ in a detail not shown here. Equal entries are not always repeated.

Tests used:
[1] = ROS-generation assay (H2O2 generated with DTT, HRP-phenol red, 610 nm); details: 50 µM compound, incubated with DTT; control 90.74±5.54
Description: The […] metabolites and enzymes (such as NADPH oxidase, lipoxygenase, and cytochrome P450) act together to mediate the production of ROS and diminish the counteractive oxidative damage. ROS can cause damage to DNA, lipid, proteins, and nucleic acids and the destruction of cell components leading to cell death. Toward this end, we aimed to investigate whether the mode of action of this class of compounds involved the generation of ROS. ROS-producing compounds upon reaction with a reducing agent in the presence of oxygen afford superoxide O^•−2 radical and hydrogen peroxide (H2O2) which could be quantitively estimated. Thus, compounds 5a and 7a (at 50 µM concentration) were incubated with the reducing agent dithiothreitol (DTT) and the generated H2O2 was subsequently assessed by monitoring the oxidation of phenol red in the presence of horseradish peroxidase (HRP) at the absorbance of 610 nm. We first examined the validity of the assay by examining the activity of a known ROS-producing standard drug. In our study, Celecoxib was utilized as a reference pharmacological ROS-generating drug. […] Next, we evaluated the potency of compounds 5a and 7a to produce ROS at a 50 µM concentration.
According to Nasiri et al., the antioxidant activity of compounds (5a, 7a) and Celecoxib was measured by an evaluation of ROS-generation using ELISA analysis. Three different solutions were prepared for the in vitro assessment of ROS-generation: phenol red, sodium hydroxide solution, and DTT. All reagents were provided by Sigma-Aldrich. A stock solution of DTT (20 mM) was prepared by dissolving […] of DTT in 500 µL of Hank’s Balanced Salt Solution (HBSS), and the obtained solution was preserved at −20 °C. The stock solution was further diluted with HBSS to 0.8 mM for each measurement. The HRP-PR solution was prepared by dissolving 1.8 mg of horseradish peroxidase (HRP) and 3 mg of phenol red (PR) in 10 mL of HBSS. […] After incubation, 1N NaOH was applied, and the absorbance at 610 nm was measured using a plate reader spectrometer. […]

[2] = test system: human lung fibroblast WI-38 cell line; experiment: MTT cytotoxicity assay against WI-38 cells; type: cell-based; details: MTT, 48 h
Procedure: Based on the promising dual inhibitory activity of this class of compounds, we next evaluated the cytotoxicity of compounds 5a and 7a against human lung fibroblast cell line WI-38 in order to gain insights into the toxicity of this class of compounds utilizing the MTT assay. In this regard, lung fibroblast cells were cultured and treated with compounds 5a and 7a for 48 h at different concentrations (1000, 250, 63, 16, and 4 µg/mL). After the cells were washed, they were treated with MTT solution and the absorption was assessed using an ELISA reader at 570 nm. As a pharmacological reference drug, Celecoxib, a well-known anti-inflammatory agent, was utilized.
The cytotoxicity of compounds 5a and 7a was assessed toward the human lung fibroblast WI-38 cell line (Sigma-Aldrich, St. Louis, MO, USA, product number 90020107) using MTT assay. The MTT test assay was performed in accordance with the previously stated procedure. MTT (3-(4,5-dimethylthiazol-2-yl)-2,5-diphenyl tetrazolium bromide; Sigma catalog no. M2128) was dissolved in PBS at 5 mg/mL and processed to eliminate the insoluble residues. Briefly, cells (10^5 cells/well) were treated for 48 h at 37 °C with compounds 5a and 7a at varied doses (1000, 250, 63, 16, and 4 µg/mL, DMSO stock solutions) in a 5% CO2 atmosphere. In our assessment, celecoxib, an inhibitor of cyclooxygenase 2, was employed as a standard reference drug. Following cell washing, MTT solution (180 µL/well) was applied to the cells and incubated at 37 °C for 4 h with shaking, and the absorbance was measured using an ELISA reader at 570 nm.

SMILES: COC(=O)CCN1C(=S)N(N=C(C)c2ccccc2O)C(=O)C1=Cc1ccccc1OC(C)=O [Compound 7a, Methyl [5-(2-acetoxybenzylidene)-4-oxo-3-(2-hydroxyphenylethylidene)amino-2-thioxoimidazolidin-1-yl] propionate]
- ROS produced (generated H2O2) [1]: 191.5 pg/mL and 191.5 ± 3.62 pg/mL

SMILES: COC(=O)CCN1C(=S)N(N=C(C)c2ccccc2O)C(=O)C1=Cc1ccccc1O [Compound 5a, Methyl [5-(2-hydroxybenzylidene)-4-oxo-3-(2-hydroxyphenylethylidene)amino-2-thioxoimidazolidin-1-yl] propionate]
- WI-38 cytotoxicity IC50 [2]: 88.538 µg/mL
- ROS produced (generated H2O2) [1]: 132.4 pg/mL and 132.4 ± 2.16 pg/mL
